The record followed here is ChEMBL document CHEMBL3352458, “Discovery of dual death-associated protein related apoptosis inducing protein kinase 1 and 2 inhibitors by a scaffold hopping approach” (J Med Chem, 2014).

Broadly, the IC50 is the concentration that gives 50% inhibition. The low end stands for greater potency in that assay, the high end for weaker potency in that assay. By Kd is commonly meant the equilibrium constant for the complex coming apart. Lower therefore signals tighter binding.

Assay [1] has as its target T1, Serine/threonine-protein kinase 17B (Homo sapiens, UniProt O94768).
T1 sequence (O94768 whole entry): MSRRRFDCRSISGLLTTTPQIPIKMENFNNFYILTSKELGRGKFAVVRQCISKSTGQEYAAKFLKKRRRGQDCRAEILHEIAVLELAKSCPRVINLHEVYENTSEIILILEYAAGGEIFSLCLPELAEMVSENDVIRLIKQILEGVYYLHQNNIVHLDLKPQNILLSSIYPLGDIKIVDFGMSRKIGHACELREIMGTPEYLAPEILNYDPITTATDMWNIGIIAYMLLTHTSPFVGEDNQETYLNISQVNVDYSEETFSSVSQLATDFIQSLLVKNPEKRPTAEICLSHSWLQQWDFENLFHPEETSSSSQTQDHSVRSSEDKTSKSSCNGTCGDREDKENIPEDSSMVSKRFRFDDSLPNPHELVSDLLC
Nature of the assay: Inhibition of DRAK2 (unknown origin) using 33P-ATP after 30 mins by Trilux scintillation counting.

Assay [2] has as its target T1, Serine/threonine-protein kinase 17B. Briefly: Binding affinity to DRAK2 (unknown origin) ATP site.
The target is the same in assay [3]. Briefly: Inhibition of DRAK2 (unknown origin) using 25 uM ATP by biochemical assay.
Assay [4] has the same target. Briefly: Inhibition of DRAK2 (unknown origin) using 50 uM ATP by biochemical assay.
Assay [5] shares this target. Briefly: Inhibition of DRAK2 (unknown origin) using 10 uM ATP by biochemical assay.
Assay [6] shares this target. Briefly: Inhibition of DRAK2 (unknown origin) using 5 uM ATP by biochemical assay.
For assay [7] the target is unchanged. Nature of the assay: Inhibition of DRAK2 (unknown origin) using 100 uM ATP by biochemical assay.
For assay [8] the target is unchanged. Nature of the assay: Inhibition of DRAK2 (unknown origin) using 1 uM ATP by biochemical assay.
Assay [9] shares this target. Nature of the assay: Inhibition of DRAK2 (unknown origin) using 250 uM ATP by biochemical assay.
For assay [10] the target is unchanged. Briefly: Inhibition of DRAK2 (unknown origin) using 500 uM ATP by biochemical assay.

The compound `COc1ccc(-c2cnc3scc(NC(=O)C4CCCCC4)c3n2)cc1OC` had a 50% inhibitory concentration (IC50) in [1] of 1780 nM. The same compound returned a Kd in assay [2] of 27 nM.

Consider `COc1ccc(-c2ccc3snc(NC(=O)C4CCCCC4)c3c2)cc1OC`, for which the dissociation constant (Kd) in assay [2] came out at 2700 nM.

Compound `COc1ccc(-c2cnc3snc(NC(=O)C4CCCC4)c3c2)cc1OC` gave a Kd in assay [2] of 2200 nM.

`O=C(Nc1nsc2ncc(-c3cccs3)cc12)C1CCCCC1` came in with a dissociation constant Kd in [2] of 1900 nM.

`O=C(Nc1nsc2ncc(-c3ccc(O)cc3)cc12)C1CCCCC1` gave a dissociation constant Kd in [2] of 3200 nM.

`COc1ccc(-c2ccc3scc(NC(=O)C4CCCCC4)c3c2)cc1OC` yielded a dissociation constant Kd in [2] of 510 nM.

As for `COc1ccc(-c2cnc3scc(NC(=O)C4CCCCC4)c3c2)cc1OC`, the concentration for half-maximal inhibition (IC50) in [3] amounted to 650 nM; in assay [4] it was 720 nM; in assay [5] it was 530 nM; in [6], 510 nM; in assay [7] it was 990 nM; in assay [8], 370 nM. For the same compound, the values for the IC50 in assay [1], in assay [9] and in [10] were 860 nM, 1470 nM and 2220 nM, respectively. The compound further showed a Kd in [2] of 9 nM.

`COc1ccc(-c2ccc3onc(NC(=O)C4CCCCC4)c3c2)cc1OC` came in with a dissociation constant (Kd) in [2] of 960 nM.

In turn, `COc1ccc(-c2cnc3snc(NC(=O)C4CCC4)c3c2)cc1OC` registered a Kd in assay [2] of 1600 nM.

`Nc1cccc(-c2cnc3snc(NC(=O)C4CCCCC4)c3c2)c1` showed a Kd in assay [2] of 2300 nM.

As for `COc1cc(-c2cnc3snc(NC(=O)C4CCCCC4)c3c2)ccc1N`, the dissociation constant (Kd) in assay [2] stood at 660 nM.

In assay [2], `COc1ccc(-c2cnc3snc(NC(=O)C4CCCCCC4)c3c2)cc1OC` came in with a Kd of 530 nM.

For the compound `COc1ccc(-c2cnc3ncnc(NC(=O)C4CCCCC4)c3n2)cc1OC`, the dissociation constant Kd in assay [2] is 180 nM. This Kd is about 2.9-fold lower than that of the compound before.

Compound `O=C(Nc1nsc2ncc(-c3ccsc3)cc12)C1CCCCC1` came in with an equilibrium dissociation constant (Kd) in [2] of 1600 nM. This Kd is about 8.9-fold higher than that of the compound before.

In assay [2], `COc1ccc(-c2cnc3[nH]cc(NC(=O)C4CCCCC4)c3c2)cc1OC` came in with a Kd of 33 nM.

On to `COc1ccc(-c2cnc3snc(NC(=O)C4CCCCC4)c3c2)cc1OC`, for which the Kd in assay [2] was 1600 nM.

On to `COc1cc(-c2cnc3snc(NC(=O)C4CCCCC4)c3c2)ccc1O`, for which the Kd in assay [2] stood at 2000 nM. The Kd values of the last two compounds are within 1.5-fold of each other.

`COc1ccc(-c2cnc3snc(NC(=O)C4CCNCC4)c3c2)cc1OC`: the Kd in [2] was 7200 nM.
